{"source": "patent US7109169B2", "about": "“Method for treating heart failure by inhibiting the sarcolemmal sodium/calcium exchange” (priority 2002, dated 2006)", "origin": "cited, not measured here", "key": {"[1]": {"system": "cardiac contractility"}, "[2]": {"system": "Na/Ca exchanger"}}}
{"smiles": "N=C(N)SCCc1ccc(OCc2ccc([N+](=O)[O-])cc2)cc1", "note": "[KB-R7943]", "values": [{"measurement": "effect on cardiac contractility", "setting": "[1]", "result": "no effect"}, {"measurement": "mode of the Na/Ca exchanger inhibited", "setting": "[2]", "result": "predominantly the Ca-entry mode"}, {"measurement": "specificity of action", "setting": "[2]; inhibits a variety of ion channels in the cardiac membrane", "result": "completely non-specific"}]}
